Assay results from patent US5387409A, “Boronic acid adducts of rhenium dioxime and technetium-99m dioxime complexes containing a biochemically active group” (Bracco International B.V., priority 1992, dated 1995).

Experiments:
[1] = Electrochemical peak potential (cathodic) in water vs. saturated calomel electrode; format: physicochemical; conditions: cathodic peak potential in water vs. saturated calomel electrode (Table 3)
xanthine oxidase = test: Enzyme assay: xanthine oxidase reduction (disappearance of the nitro compound, UV/Visible 326 nm); format: biochemical
Protocol: The nitroimidazole boronic acids in this invention were examined in an assay using the enzyme xanthine oxidase. […] All reagents were degassed prior to mixing by passage of argon over the surface for 20 minutes. Loss of the nitro group (an indication of reduction) was monitored every 5 minutes using a UV/Visible spectrophotometer set at 326 nm. The half-lives of disappearance of the nitro compounds were determined by plotting log (concentration) mmole/ml vs time for all compounds studied.

[2] = Cyclic voltammetry in DMF (peak potential vs. Ag/AgNO3); format: physicochemical; conditions: for Peak Potential (EP), Nitro-base Anodic / Peak Potential (EP), Nitro-base Cathodic: DMF, scan rate = 100 mV/sec, Ag/AgNO3 reference (Table 2); for Epc(DMF): cathodic peak potential in DMF vs. Ag/AgNO3 (Table 3)
[3] = Biodistribution: lung uptake of amine-containing 99mTc (BATO) complexes in rats; format: in vivo; conditions: I.V.
Protocol: Biodistribution Results for Amine-substituted Boron complexes, ^99m Tc(chloride)(dimethylglyoxime)3 B-R (wherein R is or contains an amine)
The other complexes listed were prepared using the methodology described in Example 2. Lung uptake at 5 and 60 minutes post I.V. administration of these compounds was noted.

estrogen receptor = test: In vitro estrogen receptor binding studies, cytosolic preparations of isolated rat uteri; conditions: rat uteri cytosol; preparations with specific activity from 400 to 2000 Ci/mmol
[4] = hypoxanthine, pH 7.4, 0.25 μMoles nitro compound

Compound	Epc(Aqueous) [1] [V]	Epc(DMF) [2] [V]	half life (enzyme assay) (xanthine oxidase; [4]) [min]	Peak Potential (EP), Nitro-base Anodic [2]	Peak Potential (EP), Nitro-base Cathodic [2]	other results
^99m Tc(chloride)(dimethylglyoxime)3 [4-[2-[(1-methylethyl)amino]propyl]phenyl]boron						% Injected Dose in Lungs, 5 min. P.I. ([3]; 5 min. post-injection): 3.25 % Injected Dose; % Injected Dose in Lungs, 60 min. P.I. ([3]; 60 min. post-injection): 2.19 % Injected Dose
^99 Tc(chlorine)(1,2-cyclohexanedione dioxime)3 1-(2-nitroimidazoyl)benzyl boron [Complex of Example 13]				-1.50	-1.56	
^99m/99 Tc(chloride)(dimethylglyoxime)3 (estradiol boron) [technetium labeled estradiol]						specific binding (estrogen receptor): 10-30 % of the total bound activity
COCC(O)Cn1ccnc1[N+](=O)[O-] (stereo not drawn) [Misonidazole, reference compound]	-0.33	-1.49	45	-1.43	-1.51	
^99 Tc(chlorine)(dimethylglyoxime)3 -1-(2-nitroimidazoyl)benzylboron [Complex of Example 15]				-1.51	-1.58	

Continued, in another order:

Epc(Aqueous) [1] [V]	Epc(DMF) [2] [V]	half life (enzyme assay) (xanthine oxidase; [4]) [min]	Compound	Peak Potential (EP), Nitro-base Anodic [2]	Peak Potential (EP), Nitro-base Cathodic [2]	other results
-0.46	-1.62		Cc1ncc([N+](=O)[O-])n1CCO [Metronidazole, reference compound]	-1.55	-1.63	half life (enzyme assay) (xanthine oxidase; pH 7.4): > 1440 min
-0.30	-1.53	42.5	O=[N+]([O-])c1nccn1CCc1ccc(B(O)O)cc1 [BPhEtNO2, 4-(2-Nitroimidazolylethyl)phenyl boronic acid]			
-0.50	-1.80	95	O=[N+]([O-])c1cn(Cc2ccc(B(O)O)cc2)cn1 [BB4NO2, 1-(4-Nitroimidazole)-benzylboronic acid]			
		11	O=[N+]([O-])c1nccn1Cc1ccc(B(O)O)cc1 [BBNO2, 1-(2-Nitroimidazoyl)benzylboronic acid]			
-0.30	-1.56	24	O=[N+]([O-])c1nccn1CC=CB(O)O [BPropeneNO2, 2-Nitroimidazolyl-N1-[2-propenyl]-3-boronic acid]			
